Data reported in US4962109A, “Insecticidally and acaricidally active pyrimidine esters and intermediates therefor” (Imperial Chemical Industries PLC, priority 1985, dated 1990).
Read-outs that look alike come from different tables or passages of the source.

Key:
Type in all cases: in vivo
[1] = test system: Tetranychus urticae (spider mites - adult); experiment: Contact test on spider mites - adult (TUa), French bean leaf, mortality; settings: 72 h, read-out: TUa grading of mortality
Outline: (§1)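 Product dissolved in acetone, diluted in water with 0.01% wetting agent to 500, 250 or 100 ppm; pests and/or host medium (plant or foodstuff) treated. Mortality or knockdown assessed 1–3 days later, graded A (80–100%), B (50–79%) or C (<50%).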

[2] = test system: Tetranychus urticae (spider mites - ova); experiment: Contact test on spider mites - ova (TUe), French bean leaf, mortality; settings: 144 h, read-out: TUe grading of mortality
Outline: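 Graded read-out: A 80-100%, B 50-79%, C below 50% mortality or knockdown, assessed usually 1-3 days post-treatment. Liquid preparations at 500, 250 or 100 ppm by weight, from acetone solution diluted in water with 0.01% wetting agent, applied to pests and/or their host plant or food medium.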

Myzus persicae (aphids) = experiment: Contact test on aphids (MP), Chinese Cabbage leaf, mortality; settings: 72 h, read-out: MP grading of mortality
Outline: as §1

[3] = test system: Nephotettix cincticeps (green leaf hopper - nymphs); experiment: Contact test on green leaf hopper nymphs (NC), Rice plant, mortality; settings: 48 h, read-out: NC grading of mortality
Outline: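 Product dissolved in acetone, diluted in water with 0.01% wetting agent to 500, 250 or 100 ppm; nymphs and/or host rice plants treated. Mortality or knockdown assessed 1–3 days later, graded A (80-100%), B (50-79%), C (<50%).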

[4] = test system: Musca domestica (houseflies - adults); experiment: Knockdown test on houseflies - adults (MD/KD), Cotton wool/sugar; settings: 500 ppm, 4 hours, read-out: MD/KD grading of knockdown
Outline: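 Adult houseflies exposed to the compound at 500, 250 or 100 ppm in acetone/water with 0.01% wetting agent, on a cotton wool/sugar medium. Knockdown and mortality assessed, graded A (80-100%), B (50-79%) or C (<50%).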

[5] = test system: Musca domestica (houseflies - adults); experiment: Contact test on houseflies - adults (MD), Cotton wool/sugar, mortality; settings: 72 h, read-out: MD grading of mortality
Outline: as §1

[6] = test system: Blattella germanica (cockroach nymphs); experiment: Contact test on cockroach nymphs (BG/C), Plastic pot, mortality; settings: 48 h, read-out: BG/C grading of mortality
Outline: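 Cockroach nymphs and/or their medium were treated with aqueous preparations at 500, 250 or 100 ppm (acetone solution diluted in water with 0.01% Lissapol NX wetting agent). Mortality or knockdown was assessed typically 1–3 days later and graded A (80–100%), B (50–79%) or C (<50%).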

[7] = test system: Heliothis virescens (tobacco budworm - larvae); experiment: Residual test on tobacco budworm larvae (HV), Cotton leaf, mortality; settings: 48 h, read-out: HV grading of mortality
Outline: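 Product in acetone diluted with water containing 0.01% Lissapol NX, at 500, 250 or 100 ppm; pests and/or host medium (here cotton leaf) treated. Mortality scored one to three days later, graded A (80-100%), B (50-79%), C (<50%).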

[8] = test system: Spodoptera exigua (lesser army worm - larvae); experiment: Residual test on lesser army worm larvae (SP), Cotton leaf, mortality; settings: 48 h, read-out: SP grading of mortality
Outline: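 Product dissolved in acetone and diluted in water with 0.01% wetting agent to 500, 250 or 100 ppm; larvae and/or cotton leaf host treated. Mortality or knockdown scored one to three days later and graded A (80-100%), B (50-79%) or C (<50%).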

[9] = test system: Diabrotica balteata (rootworm larvae); experiment: Residual test on rootworm larvae (DB), Filter paper/maize seed, mortality; settings: 48 h, read-out: DB grading of mortality
Outline: as §1

Compound | mortality at 500 ppm ([1]; 500 ppm, contact, 3 days) [%] | mortality at 500 ppm ([2]; 500 ppm, contact, 6 days) [%] | mortality at 500 ppm (Myzus persicae (aphids); 500 ppm, contact, 3 days) [%] | mortality at 500 ppm ([3]; 500 ppm, contact, 2 days) [%] | pest or weed control at 500 ppm [4] [%] | mortality at 500 ppm ([5]; 500 ppm, contact, 3 days) [%] | mortality at 500 ppm ([6]; 500 ppm, contact, 2 days) [%] | mortality at 500 ppm [7] [%] | mortality at 500 ppm ([8]; 500 ppm, residual, 2 days) [%] | mortality at 500 ppm ([9]; 500 ppm, residual, 2 days) [%] | mortality at 500 ppm [1] [%] | mortality at 500 ppm [2] [%] | mortality at 500 ppm (Myzus persicae (aphids)) [%] | mortality at 500 ppm [3] [%] | mortality at 500 ppm [5] [%] | mortality at 500 ppm [6] [%] | mortality at 500 ppm [8] [%] | mortality at 500 ppm [9] [%]
COCc1c(F)c(F)c(COC(=O)C(c2cnc(C(C)(C)C)nc2)C(F)(F)F)c(F)c1F (racemic) [Compound 213, 4-(methoxymethyl)-2,3,5,6-tetrafluorobenzyl (RS)-2-[2-(1,1-dimethylethyl)pyrimidin-5-yl]-3,3,3-trifluoropropionate] | 80 to 100 | < 50 | 50 to 79 | < 50 | 80 to 100 | < 50 | 50 to 79 | < 50 | < 50 | < 50 |  |  |  |  |  |  |  | 
CC(OC(=O)C(c1cnc(C2CC2)nc1)C(C)(C)C)c1cccc(Oc2ccccc2)n1 (racemic) [Compound 78, RS-1-(6-phenoxypyrid-2-yl)ethyl (RS)-2-(2-cyclopropylpyrimidin-5-yl)-3,3-dimethylbutanoate] | 80 to 100 | 50 to 79 | 80 to 100 | 80 to 100 | 80 to 100 | < 50 | 50 to 79 | 80 to 100 | 80 to 100 | 80 to 100 |  |  |  |  |  |  |  | 
CSc1c(COC(=O)C(c2cnc(C(C)(C)C)nc2)C(C)(C)C)cc(F)c(C)c1F (racemic) [Compound 182, 4-methyl-2-thiomethyl-3,5-difluorobenzyl (RS)-2-[2-(1,1-dimethylethyl)pyrimidin-5-yl]-3,3dimethylbutanoate] | 80 to 100 | < 50 | 50 to 79 | 80 to 100 | < 50 | < 50 | < 50 | < 50 | < 50 | < 50 |  |  |  |  |  |  |  | 
COCc1c(F)c(F)c(COC(=O)C(c2cnc(C(C)C)nc2)C(C)(C)C)c(F)c1F (racemic) [Compound 131, 2,3,5,6-tetrafluoro-4-(methoxymethyl)benzyl (RS)-2-[2-(1-methylethyl)-pyrimidin-5-yl]-3,3dimethylbutanoate] | 80 to 100 | 80 to 100 | 80 to 100 | 80 to 100 | 80 to 100 | < 50 | < 50 | < 50 | 80 to 100 | 80 to 100 |  |  |  |  |  |  |  | 
CC(C)(C)c1ncc(C(C(=O)SCc2c(F)c(F)c(CO)c(F)c2F)C(C)(C)C)cn1 (racemic) [Compound 196] | < 50 | < 50 | < 50 | < 50 | < 50 | < 50 | < 50 | < 50 | 80 to 100 | < 50 |  |  |  |  |  |  |  | 
Cc1ncc(C(C(=O)OCc2ccc(F)c(Oc3ccccc3)c2)C(C)(C)C)cn1 (racemic) [Compound 206, 4-fluoro-3-phenoxybenzyl (RS)-2-(2-methylpyrimidin-5-yl)-3,3,-dimethylbutanoate] | 80 to 100 | < 50 | 80 to 100 | 80 to 100 | 80 to 100 | 80 to 100 | 50 to 79 | 80 to 100 | 80 to 100 | 80 to 100 |  |  |  |  |  |  |  | 
COCc1c(F)c(F)c(COC(=O)C(c2cnc(C3(C)CCCCC3)nc2)C(C)(C)C)c(F)c1F (racemic) [Compound 207, 2,3,5,6-tetrafluoro-4-(methoxymethyl)benzyl (RS)-2-[2-(1-methylcyclohexyl)pyrimidin-5-yl]-3,3-dimethylbutanoate] | 80 to 100 | < 50 | 80 to 100 | 80 to 100 | 80 to 100 | < 50 | < 50 | < 50 | < 50 | < 50 |  |  |  |  |  |  |  | 
CC(C)(C)C(=O)OCc1c(F)c(F)c(COC(=O)C(c2cnc(C(C)(C)C)nc2)C(C)(C)C)c(F)c1F (racemic) [Compound 172, 4-[(2,2-dimethylpropionyl)oxymethyl]-2,3,5,6-tetrafluorobenzyl (RS)-2-[2-(1,1-dimethylethyl)pyrimidin-5-yl]-3,3-dimethylbutanoate] | 80 to 100 | < 50 | 50 to 79 | < 50 | < 50 | < 50 | < 50 | < 50 | < 50 | < 50 |  |  |  |  |  |  |  | 
CC[Si](CC)(CC)CCCc1c(F)c(F)c(COC(=O)C(c2cnc(C(C)(C)C)nc2)C(C)(C)C)c(F)c1F (racemic) [Compound 218, 4-[3-(triethylsilyl)prop-1-yl]-2,3,5,6-tetrafluorobenzyl (RS)-2-[2-(1,1-dimethylethyl)pyrimidin-5-yl]-3,3-dimethylbutanoate] |  |  |  |  | < 50 |  |  | < 50 |  |  | 80 to 100 | < 50 | 80 to 100 | 80 to 100 | < 50 | < 50 | < 50 | < 50
CCC(C)(C)c1ncc(C(C(=O)OCc2ccc(F)c(Oc3ccccc3)c2)C(C)(C)C)cn1 (racemic) [Compound 68, 4-fluoro-3-phenoxybenzyl (RS)-2-[2-(1,1-dimethylpropyl)pyrimidin-5-yl]-3,3-dimethylbutanoate] | 80 to 100 | < 50 | 80 to 100 | 80 to 100 | < 50 | < 50 | < 50 | 80 to 100 | 50 to 79 | < 50 |  |  |  |  |  |  |  | 
CC(C)(C)c1ncc(C(C(=O)OCc2c(F)cccc2Cl)C(C)(C)C)cn1 (racemic) [Compound 26, 2-chloro-6-fluorobenzyl (RS)-2-[2-(1,1-dimethylethyl)pyrimidin-5-yl]-3,3-dimethylbutanoate] | 80 to 100 | 80 to 100 | 50 to 79 | 80 to 100 | 80 to 100 | 80 to 100 | < 50 | < 50 | 80 to 100 | 80 to 100 |  |  |  |  |  |  |  | 
CCOc1c(F)c(COc2ccccc2)c(F)c(F)c1COC(=O)C(c1cnc(C(C)(C)C)nc1)C(C)(C)C (racemic) [Compound 194, 2,3,5-trifluoro-6-ethoxy-4-(phenoxymethyl)benzyl (RS)-2-[2-(1,1-dimethylethyl)pyrimidin-5-yl]-3,3-dimethylbutanoate] | 80 to 100 | < 50 | < 50 | < 50 | < 50 | < 50 | < 50 | < 50 | 80 to 100 | < 50 |  |  |  |  |  |  |  | 
